Measured values from US20140066365A1, “USE OF CALIXARENES ASSOCIATED WITH AN ANTIBIOTIC IN THE TREATMENT OF BACTERIAL INFECTIONS” (priority 2011, published 2014).
In brackets after ≈: the same amount, converted by molar mass. Like-named read-outs stand apart in the source and are kept apart here.

Tests used:
Type in all cases: cell-based
[1] = tested on: SaR4: Meticillin-Resistant Staphylococcus aureus; assay: Antibiogram, MIC by the VITEK 2 system; details: SaR4; for CA-SFM Interpretation: Cc CA-SFM 2011
Method: (§1) The bacterial and antibiogramidentification is carried out by the VITEK 2 system (bioMérieux) and by the disk diffusion technique

[2] = tested on: EcR3: ESBL-Producing Escherichia coli; assay: Antibiogram by the disk diffusion technique; details: for Diameter: Table C1; for diameter in mm: Table C2
Method: The bacterial and antibiogramidentification is carried out by the VITEK 2 system (bioMerieux) and by the disk diffusion technique

[3] = tested on: EcR1: Penicillinase-Producing Escherichia coli without Associated Resistance; assay: Antibiogram by the disk diffusion technique; details: for Diameter: EcR1, disk diffusion
Method: (§2) 5.1 EcR1: Penicillinase-Producing Escherichia coli without Associated Resistance The bacterial and antibiogramidentification is carried out by the VITEK 2 system (bioMérieux) and by the disk diffusion technique.

[4] = tested on: SaR1: Meticillin-Resistant Staphylococcus aureus without Associated Resistance; assay: Antibiogram, inhibition diameter (Table D1); details: for Results: from diameter, against Dmin Dmax
Method: (§3) The bacterial and antibiogramidentification is carried out by the VITEK 2 system (bioMérieux)

[5] = tested on: PaR5: Pseudomonas aeruginosa; assay: Antibiogram by the disk diffusion technique; details: for diameter in mm: disk diffusion inhibition diameter, strain PaR5
Method: as §1

[6] = tested on: SaR3: Meticillin-Resistant Staphylococcus aureus; assay: Antibiogram by the disk diffusion technique; details: for Diameter: Table E1; for diameter in mm: Table E2; for CA-SFM Interpretation: Cd CA-SFM 2011; for Results: Table E1, against Dmin Dmax
Method: as §1

[7] = tested on: PaR2: Pseudomonas aeruginosa; details: for Diameter: Table G1; for diameter in mm: Table G2
Method: as §1

[8] = tested on: PaR3: Pseudomonas aeruginosa; assay: Antibiogram, MIC by the VITEK 2 system
Method: as §3

[9] = tested on: SaR1: Meticillin-Resistant Staphylococcus aureus without Associated Resistance; assay: Antibiogram, MIC by the VITEK 2 system; details: SaR1; for MIC: Staphylococcus aureus, read-out: MIC; for CA-SFM Interpretation: Cc CA-SFM 2011; for Results: from MIC
Method: as §3

[10] = tested on: Escherichia coli strain ATCC 25922 (wild type); assay: MIC of the compounds used alone, microdilution in a liquid medium (CLSI); details: Escherichia coli, ATCC25922; antibiotic alone (second value of cell); E. coli ATCC 25922; read-out: Initial MICs
From the text: (§4) The MICs of the antibiotics were previously defined for each strain, by the method of microdilution in a liquid medium (CLSI (Clinical and Laboratory Standards Institute), 2003).

[11] = tested on: ESBL-producing strain of Escherichia coli, having an associated resistance to the aminoglycosides (EcR3); assay: as above; details: Escherichia coli, antibiotic alone (second value of cell), read-out: Initial MICs
From the text: as §4

[12] = tested on: cephalosporinase-hyperproducing strain of Escherichia coli (EcR2); assay: as above; details: Escherichia coli, antibiotic alone (second value of cell), read-out: Initial MICs
From the text: as §4

[13] = tested on: penicillinase-producing strain of Escherichia coli without associated resistance (EcR1); assay: as above; details: Escherichia coli, antibiotic alone (second value of cell), read-out: Initial MICs
From the text: as §4

[14] = tested on: EcR1: Penicillinase-Producing Escherichia coli without Associated Resistance; assay: Antibiogram, MIC by the VITEK 2 system; details: for MIC: Escherichia coli
Method: as §2

[15] = Staphylococcus aureus, Table F1, read-out: MIC
[16] = Staphylococcus aureus, Table F2, MIC, read-out: MIC
[17] = Pseudomonas aeruginosa, Table H2, read-out: MIC

CN(C)c1ccc(O)c2c1C[C@H]1C[C@H]3[C@H](N(C)C)C(O)=C(C(N)=O)C(=O)[C@@]3(O)C(O)=C1C2=O [Minocycline]
MIC [1, 15]: ≤ 4 µg/mL
MIC [1, 16]: ≤ 0.5 µg/mL
Diameter [2]: 21 mm
diameter in mm [2]: 21 mm
MIC mg/L (diameter in mm) ([3]; EcR1, cells that print a diameter, Table A2): 20 mm
Diameter ([3]; Table A1): 20 mm
Diameter [4]: 27 mm
Diameter ([5]; PaR5, Table I1): 11 mm
diameter in mm [5]: 11 mm
Diameter [6]: 26 mm
diameter in mm [6]: 26 mm
Diameter [7]: 6 mm
diameter in mm [7]: 6 mm
MIC [8, 17]: 4 µg/mL (≈ 8.74 µM)
MIC ([8]; Table H1): 4 µg/mL (≈ 8.74 µM)
MIC mg/L ([9]; Table D2): ≦0.5 mg/L
MIC ([9]; Table D1): ≤ 0.5 µg/mL

C[C@@H](O)[C@H]1C(=O)N2C(C(=O)O)=C(S[C@@H]3CN[C@H](C(=O)Nc4cccc(C(=O)O)c4)C3)[C@H](C)[C@H]12 [Ertapenem]
MIC [10]: 0.015 µg/mL
MIC [11]: 0.0015 µg/mL
MIC [12]: 0.03 µg/mL
MIC [13]: 0.015 µg/mL

CCC[C@@H]1C[C@@H](C(=O)N[C@@H]([C@H]2O[C@H](SC)[C@H](O)[C@@H](O)[C@H]2O)[C@@H](C)O)N(C)C1 [Lincomycin]
Results ([1]; Table F1, MIC): Resistant
CA-SFM Interpretation ([1]; from MIC): Resistant
MIC [1, 15]: ≥ 16 µg/mL
MIC [1, 16]: ≥ 16 µg/mL
Diameter [4]: 24 mm
Results [4]: Susceptible
CA-SFM Interpretation [6]: Susceptible
Diameter [6]: 23 mm
Results [6]: Susceptible
diameter in mm [6]: 23 mm
CA-SFM Interpretation [9]: Susceptible
Results ([9]; Table D1): Susceptible
MIC mg/L ([9]; Table D2): ≦1 mg/L
MIC ([9]; Table D1): ≤ 1 µg/mL

CCN1CCN(C(=O)N[C@@H](C(=O)N[C@@H]2C(=O)N3[C@@H]2SC(C)(C)[C@@H]3C(=O)O)c2ccccc2)C(=O)C1=O [Piperacillin]
CA-SFM Interpretation ([2]; Cd CA-SFM 2011): Resistant
CLSI Interpretation ([2]; Cd CLSI 2011): Resistant
EUCAST Interpretation ([2]; Cd EUCAST 2011): Resistant
Diameter [2]: 13 mm
Results ([2]; Table C1, against Dmin Dmax): Intermediate
diameter in mm [2]: 13 mm
CA-SFM Interpretation ([14]; EcR1, MIC against Cc CA-SFM 2011): Susceptible
CLSI Interpretation ([14]; EcR1, MIC against Cc CLSI 2011): Susceptible
EUCAST Interpretation ([14]; EcR1, MIC against Cc EUCAST 2011): Susceptible
Results ([14]; EcR1, interpretation of the MIC, Table A1): Susceptible
MIC ([14]; EcR1, Table A2, read-out: MIC mg/L (diameter in mm)): ≤ 8 mg/L
MIC ([14]; EcR1, VITEK 2, Table A1, read-out: MIC): ≤ 8 mg/L
Diameter ([3]; Table A1): 17 mm
Results ([3]; EcR1, interpretation of the diameter against Dmin Dmax, Table A1): Intermediate
Diameter ([5]; PaR5, Table I1): 33 mm
Results ([5]; PaR5, Table I1, against Dmin-Dmax): Susceptible
diameter in mm [5]: 33 mm
CA-SFM Interpretation ([5]; disk diffusion, PaR5, versus critical diameter CA-SFM 2011): Susceptible
CLSI Interpretation ([5]; disk diffusion, PaR5, versus critical diameter CLSI 2011): Susceptible
EUCAST Interpretation ([5]; disk diffusion, PaR5, versus critical diameter EUCAST 2011, for ** antibiotics the disk load differs and the EUCAST interpretation is not applicable): Susceptible
MIC [10]: 2 µg/mL
MIC [11]: 128 µg/mL
MIC [12]: 32 µg/mL
MIC [13]: 256 µg/mL
CA-SFM Interpretation ([7]; Cd CA-SFM 2011): Susceptible
CLSI Interpretation ([7]; Cd CLSI 2011): Susceptible
EUCAST Interpretation ([7]; Cd EUCAST 2011): Susceptible
Diameter [7]: 22 mm
Results ([7]; Table G1, against Dmin-Dmax): Susceptible
diameter in mm [7]: 22 mm
CA-SFM Interpretation ([8]; Cc CA-SFM 2011): Resistant
CLSI Interpretation ([8]; Cc CLSI 2011): Resistant
EUCAST Interpretation ([8]; Cc EUCAST 2011): Resistant
MIC [8, 17]: ≥ 128 µg/mL
MIC ([8]; Table H1): ≧128
Results ([8]; Table H1): Resistant

Teicoplanin
MIC mg/L ([1]; Table F1): ≦4 mg/L
Results ([1]; Table F1, MIC): Susceptible
MIC ([1]; Table F2, MIC): ≦4 mg/L
CA-SFM Interpretation ([1]; from MIC): Susceptible
CLSI Interpretation ([1]; from MIC, Cc CLSI 2011): Susceptible
EUCAST Interpretation ([1]; from MIC, Cc EUCAST 2011): Susceptible
Results [4]: Susceptible
CA-SFM Interpretation [6]: Susceptible
CLSI Interpretation ([6]; Cd CLSI 2011): Susceptible
Results [6]: Susceptible
diameter in mm [6]: 27 mm
CA-SFM Interpretation [9]: Susceptible
CLSI Interpretation ([9]; Cc CLSI 2011): Susceptible
EUCAST Interpretation ([9]; Cc EUCAST 2011): Susceptible
MIC mg/L ([9]; Table D1): ≦0.5 mg/L
Results ([9]; Table D1): Susceptible
MIC mg/L ([9]; Table D2): ≦0.5 mg/L
